Earlier results in US9011933B2, “Therapeutic methods and pharmaceutical compositions for treating warts with tellurium compounds” (Biomas Ltd., priority 2004, dated 2015).
Where two headings read alike, the source gives them in different places.

How the values were obtained:
human viruses = settings: studies conducted heretofore
[1] = rats; intravenous and intramuscular dosage

For bleomycine, the success rate (warts; intralesional therapy) is given as about 70%.
In the case of `Cl[TeH]1(Cl)(Cl)OCCO1` [AS101, ammonium trichloro(dioxyethylene-O,O′)tellurate], the “efficacy as an anti-viral agent against human viruses” value (human viruses) is listed as “insufficient” and the “LD50 relative to the immunology effective dose” value [1] is listed as 500-1000 folds.
For `O=C(O)c1ccccc1O` [salicylic acid], the cure rate (warts; topical standard treatment, after 4 weeks, at best) is listed as at most 40%.
For `O=C(O)C(Cl)(Cl)Cl` [trichloro acetic acid], the cure rate (warts; typical result of treatment) is given as 64-81%.
In the case of `N#N` [liquid nitrogen], the “patients remaining clear of warts” value (warts; after a median of 19 months) is listed as 57% and the “initial cure, patients” value (warts; liquid nitrogen treatment of warts) is listed as 52-83%.
